Results taken from patent publication EP1967193A1, “Enhancement of anticancer therapy by flavonoids” (Vrije Universiteit Medisch Centrum (VUMC), priority 2007, dated 2008).
Values joined by “and” are separate entries in the source; they are usually repeats but may differ in a detail not shown here. Identical values can stand only once. “Also recorded” adds a separate entry of the source.

Key:
STS = STS patients without prior chemotherapy; DOX alone; cited from earlier work
cardiomyocytes [1] = settings: cited from earlier work
cardiomyocytes [2] = test: Phase II study: endomyocardial biopsy scored by electron microscopy for DOX-induced cardiotoxicity; assay type: in vivo, human; settings: for Biopsy score cum.dose/Δt/grade: left ventricle; for Cum.dose / biopsy score / LVEF: biopsy score: second biopsy
Procedure: In this example, we evaluated the cardioprotective properties of monoHER given as a 10 minute i.v infusion at a dose of 1500 mg/m^2 in patients with metastatic cancer treated with DOX. For the early detection of DOX-induced cardiotoxicity endomyocardial biopies were taken, because of its high sensitivity and high specificity (18).
(§1) MonoHER was administered as a 10 min intravenous infusion at a dose of 1500 mg/m^2 60 min before every DOX administration. If cardiotoxicity would be observed in the first three evaluable patients, administration according to this dosing scheme would be changed and the following patients would receive DOX infusion either immediately after monoHER (because in plasma and heart Cmax of monoHER is obtained immediately after the end of infusion (17, 19)) or with an interval of 2 hours (to give monoHER the opportunity to convert into an active metabolite, if any).
(§2) After a cumulative dose of 300 mg/m^2 DOX an endomyocardial biopsy was performed and measurement of the LVEF was repeated. The latter was also done at least 3 weeks after the last dose of DOX and a biopsy was repeated if possible. For logistic reasons, the biopsy of patient #8 was done after a cumulative dose of 375 mg/m^2 DOX.
During a left heart catheterization, a 104 cm, 7 french biopsy forceps was used to obtain tissue from the left ventricle. Three to four specimens 0.5 to 1 mm in diameter were obtained. The specimens were fixed in 4% buffered formaldehyde and prepared for electron microscopy.
After fixation in 4% buffered formaldehyde, the heart tissue was post fixed in 1% osmium tetroxide. The tissue was then dehydrated through a graded series of ethanol solutions of 70-95% and embedded in JB-4 Plus resin. Thereafter, 0.5-3.0 µm thick sections were cut with a glass knife. These semithin sections were processed for electron microscopy. Cardiomyocytes with more than 2 microvacuoles, macrovacuoles and/or loss of myofibrils were counted as deviant. The morphological grade determined from the specimens examined by electron microscopy was scored on a 6-point scale previously described by Billingham and Bristow (20, 21): in grade 0 cells are normal; in grade 1, 1.5, 2 and 2.5 deviant cells are < 5%, 5-15%, 16 - 25 % and 26 - 35%, respectively; in grade 3 cell damage is present in more than 35% of cells.

[3] = Phase II study: monitoring of cardiac function (LVEF, ECG); assay type: in vivo, human
Procedure: (§3) Before starting the study patients were evaluated by a full blood count, serum biochemistry including liver function tests, lactate dehydrogenase (LDH) and cholesterol. Risk factors for cardiovascular disease were also evaluated. An LVEF and an ECG were performed before entry into the study.
(§4) Every subsequent administration of monoHER and DOX was preceded by a full blood count, liver enzymes, serum creatinine and a routine 12-lead ECG. A complete blood count was also done 10 days after the chemotherapy.
as §2
Patients went off study in case of progressive disease, a serious cardiac event, or other events that precluded further treatment. Criteria described by Shapiro et al. (22) were used for diagnosis of cardiac events. Episodes of cardiac dysfunction were characterized according to the New York Heart Association functional classification (23).

metastatic solid tumors = test: Phase II study: assessment of tumor response by CT-scan, ECOG criteria; assay type: in vivo, human; set-up: key to Response on dox: PD = progressive disease; PR = partial remission; SD = stabile disease; settings: for partial remission maintained, time after the start of chemotherapy: maintained up to the present
Procedure: Patients with metastatic solid tumors were entered when they received a DOX-based chemotherapy regimen with a dosage of DOX ≥ 50 mg/m^2/ cycle and an infusion duration ≤ 1 hour. […] The left ventricular ejection fraction (LVEF) was > 50%. Patients were excluded if they had received prior anthracyclines, had prior or actual cardiovascular disease or had prior radiotherapy to the mediastinum.
as §1
Assessment of tumor response was done every 2-3 cycles by CT-scan, using standard ECOG criteria (24).

[4] = Phase II study: adverse events and laboratory monitoring; assay type: in vivo, human
Procedure: as §1, §3, §4

[5] = Detection of metabolites of monoHER
[6] = cited from earlier work
[7] = system: doxorubicin-induced chronic cardiotoxicity; settings: preclinical, cited from earlier work
[8] = patient 03, cum. dose 480 mg/m^2 DOX
[9] = patient 04, cum. dose 450 mg/m^2 DOX

COc1cccc2c1C(=O)c1c(O)c3c(c(O)c1C2=O)C[C@@](O)(C(=O)CO)C[C@@H]3O[C@H]1C[C@H](N)[C@H](O)[C@H](C)O1 [DOX, doxorubicin]
objective responses on DOX (STS): approximately 25% | patients with anthracycline-induced myocardial damage (cardiomyocytes [1]; cumulative DOX doses of 240 mg/m^2, data of Billingham et al.): nearly all patients | biopsy score expected after DOX alone (cardiomyocytes [1]; cumulative dose of 300 mg/m^2 DOX, linear regression analysis of Torti et al., right ventricle): 1.4

C[C@@H]1O[C@@H](OC[C@H]2O[C@@H](Oc3c(-c4ccc(O)c(O)c4)oc4cc(OCCO)cc(O)c4c3=O)[C@H](O)[C@@H](O)[C@@H]2O)[C@H](O)[C@H](O)[C@H]1O [monoHER, 7-monohydroxyethylrutoside]
mean biopsy score according to Billingham (cardiomyocytes [2]; 5 patients, median cumulative dose 300 mg/m2 DOX, monoHER 1500 mg/m^2 before DOX): 2.7 | cardioprotective effect against DOX-induced cardiotoxicity (cardiomyocytes [2]; five patients with biopsy, monoHER 1500 mg/m^2): no cardioprotective effect; also recorded: did not protect against DOX-induced cardiotoxicity | Biopsy score cum.dose/Δt/grade (cardiomyocytes [2]; patient 03, cum. dose 300 mg/m^2 DOX, Δt 60 min after monoHER 1500 mg/m^2): 300 / 60 / Grade 3 (in grade 3 cell damage is present in more than 35% of cells) | Cum.dose / biopsy score / LVEF: biopsy score (cardiomyocytes [2]; [8]): 3 (in grade 3 cell damage is present in more than 35% of cells) | Cum.dose / biopsy score / LVEF: biopsy score (cardiomyocytes [2]; [9]): 2.5 (in grade 1, 1.5, 2 and 2.5 deviant cells are < 5%, 5-15%, 16 - 25 % and 26 - 35%, respectively) | Biopsy score 10 months after last cycle (cardiomyocytes [2]; patient 04, third biopsy): 2 (in grade 1, 1.5, 2 and 2.5 deviant cells are < 5%, 5-15%, 16 - 25 % and 26 - 35%, respectively) | Biopsy score cum.dose/Δt/grade (cardiomyocytes [2]; patient 06, cum. dose 300 mg/m^2 DOX, Δt 60 min after monoHER 1500 mg/m^2): 300 / 60 / Grade 2.5 (in grade 1, 1.5, 2 and 2.5 deviant cells are < 5%, 5-15%, 16 - 25 % and 26 - 35%, respectively) | Biopsy score cum.dose/Δt/grade (cardiomyocytes [2]; patient 07, cum. dose 300 mg/m^2 DOX, Δt 10 min after monoHER 1500 mg/m^2): 300 / 10 / Grade 3 (in grade 3 cell damage is present in more than 35% of cells) | Biopsy score cum.dose/Δt/grade (cardiomyocytes [2]; patient 08, cum. dose 375 mg/m^2 DOX, Δt 120 min after monoHER 1500 mg/m^2): 375 / 120 / Grade 3 (in grade 3 cell damage is present in more than 35% of cells) | microvacuoles present in % of the cardiomyocytes (cardiomyocytes [2]; patient #3, after 300 mg/m^2 DOX, monoHER 60 min before DOX): 52% | microvacuoles present in % of the cardiomyocytes (cardiomyocytes [2]; patient #4, after 300 mg/m^2 DOX, monoHER 60 min before DOX): 20% | cardiomyocytes with > 2 small vacuoles per cardiomyocyte (cardiomyocytes [2]; patient #6, after 300 mg/m^2 DOX, monoHER 60 min before DOX): 33% | microvacuolization in % of the cardiomyocytes (cardiomyocytes [2]; patient #7, DOX immediately after monoHER): 60% | microvacuolization in % of the cardiomyocytes (cardiomyocytes [2]; patient #8, DOX 2 h after monoHER): 49% | patients in whom the LVEF decreased ([3]; after 300-375 mg/m^2 DOX, no LVEF information for patient #6): 4/5 | ECG during therapy ([3]; all patients): remained unchanged | cardiac dysfunction ([3]; all patients, during therapy): no cardiac dysfunction occurred | LVEF 10 months after last cycle ([3]; patient 03): ND / 51% | LVEF after ≥ 300 mg/m^2 ([3]; patient 03, LVEF before dox 71%, Δt 60 min): 67% | Cum.dose / biopsy score / LVEF: LVEF [3, 8]: 53% | LVEF 10 months after last cycle ([3]; patient 04): 62% | LVEF after ≥ 300 mg/m^2 ([3]; patient 04, LVEF before dox 72%, Δt 60 min): 60% | Cum.dose / biopsy score / LVEF: LVEF [3, 9]: 66% | LVEF after ≥ 300 mg/m^2 ([3]; patient 07, LVEF before dox 75%, Δt 10 min): 63% | LVEF after ≥ 300 mg/m^2 ([3]; patient 08, LVEF before dox 65%, Δt 120 min, 375 mg/m^2 DOX): 63% | decline of LVEF compared to the ejection fraction before start of the study ([3]; patient #3, after 480 mg/m2 DOX, 71% to 53%): 25% | decline of LVEF ([3]; patient #4, 72% before chemotherapy to 60% after 300 mg/m2 DOX): > 15% | LVEF decrease in comparison to the initial LVEF ([3]; two other patients): 4-6% | LVEF drop in comparison to the initial LVEF ([3]; two patients): 16% | patients with partial remission / objective remission (metastatic solid tumors; 4 patients with metastatic soft tissue sarcoma (STS), DOX preceded by monoHER 1500 mg/m^2): Three and 3 of the four | effect on antitumour activity of DOX (metastatic solid tumors; STS patients): enhances the antitumour activity of DOX | Response on dox (metastatic solid tumors; patient 01, Breast cancer, total DOX 100 mg/m^2, monoHER 1500 mg/m^2 i.v. 60 min before every DOX): PD | Response on dox (metastatic solid tumors; patient 02, Adrenal cortical cancer, total DOX 150 mg/m^2, monoHER 1500 mg/m^2 i.v. 60 min before every DOX): PD | Response on dox (metastatic solid tumors; patient 03, Malignant peripheral nerve sheet tumor, total DOX 480 mg/m^2, monoHER 1500 mg/m^2 i.v. 60 min before every DOX): PR | Response on dox (metastatic solid tumors; patient 04, Malignant fibrous histiocytoma, total DOX 450 mg/m^2, monoHER 1500 mg/m^2 i.v. 60 min before every DOX): PR | Response on dox (metastatic solid tumors; patient 05, Breast cancer, total DOX 100 mg/m^2, monoHER 1500 mg/m^2 i.v. 60 min before every DOX): PD | Response on dox (metastatic solid tumors; patient 06, Breast cancer, total DOX 300 mg/m^2, monoHER 1500 mg/m^2 i.v. 60 min before every DOX): SD | Response on dox (metastatic solid tumors; patient 07, Malignant fibrous histiocytoma, total DOX 300 mg/m^2, DOX immediately after monoHER 1500 mg/m^2 i.v.): PR | Response on dox (metastatic solid tumors; patient 08, Malignant fibrous histiocytoma, total DOX 375 mg/m^2, DOX 2 h after monoHER 1500 mg/m^2 i.v.): SD | duration of partial remission (metastatic solid tumors; patient #3, then progressive disease): nine | partial remission maintained, time after the start of chemotherapy (metastatic solid tumors; patient #4): ≥ 30 months | partial remission maintained, time after the start of chemotherapy (metastatic solid tumors; patient #7): ≥ 16 months | duration of stable disease (metastatic solid tumors; patient #8, continuing DOX up to cumulative dose of 495 mg/m^2): at least 7 months | adverse events during monoHER infusion ([4]; 8 patients, sensation of fullness in stomach (one), itching in skin of neck (one), during each cycle): two patients reported adverse events | leucopenia ([4]; due to chemotherapy, recovered before the start of the next cycle): all patients developed leucopenia | liver enzymes and serum creatinine ([4]; monoHER 1500 mg/m^2 plus DOX): No disturbances | metabolites of monoHER [5]: no metabolites of monoHER have been detected until now | Cmax and AUC ([6]; dose 1500 mg/m^2): comparable to those obtained in mice under protecting conditions | side effects ([6]; up to a dose of 1500 mg/m^2): No serious side effects were observed | influence on the antitumor activity of doxorubicin ([7]; in vitro or in vivo): did not influence the antitumor activity of doxorubicin | cardioprotection against doxorubicin-induced chronic cardiotoxicity ([7]; animals): dose-dependent cardioprotection
